For test [1], the target named is T1, Dimer of Gag-Pol polyprotein [489-587] (Human immunodeficiency virus 1, UniProt P12497).
T1 construct: 489-587
Put plainly: Protease Inhibition Assay. As for the experimental part: (§1) Sensitivity of HIV-1 protease activity to protease inhibitors was determined by a peptide substrate cleavage assay. Protease products were analyzed on a reverse-phase high-pressure liquid chromatograph.

Test [2] has as its target T2, Gag-Pol polyprotein [489-587] (Human immunodeficiency virus 1, UniProt P04585).
T2 construct: 489-587
The test can be described thus: Protease Inhibition Assay. As to the method: as §1

For orientation: IC50 means the concentration that gives 50% inhibition. A low value points to inhibition by little substance. For the molecule `Cc1cc(SC2C(=O)CC(CCc3ccc(O)cc3)(C(C)C)OC2=O)c(C(C)(C)C)cc1NS(C)(=O)=O` (stereo not given), the IC50 came out at 4 nM in test [1] (pH 6.2, 37 °C) and 4 nM in test [2].
For the molecule `Cc1cc(SC2C(=O)CC(CCc3ccc(O)cc3)(C(C)C)OC2=O)c(C(C)(C)C)cc1NS(=O)(=O)c1ccc(Cl)cc1` (stereo not given), the IC50 amounted to 5.3 nM in test [1] (pH 6.2, 37 °C) and 5.3 nM in test [2].
`Cc1cc(SC2C(=O)CC(CCc3ccc(O)cc3)(C(C)C)OC2=O)c(C(C)(C)C)cc1NS(=O)(=O)c1cccnc1` (stereo not given): the IC50 came to 2.6 nM in test [1] (pH 6.2, 37 °C) and 2.6 nM in test [2].
`Cc1cc(SC2C(=O)CC(C)(CCc3ccc(O)cc3)OC2=O)c(C(C)(C)C)cc1NS(C)(=O)=O` (stereo not given): the IC50 in test [1] (pH 6.2, 37 °C) was determined as 9.7 nM; in test [2] it was 9.7 nM.
Take `Cc1cc(SC2C(=O)CC(C)(CCc3ccc(O)cc3)OC2=O)c(C(C)(C)C)cc1NS(=O)(=O)c1ccc(C#N)cc1` (stereo not given): the IC50 in test [1] (pH 6.2, 37 °C) was found to be 2.1 nM; in test [2], 2.1 nM.
In the case of `Cc1cc(SC2C(=O)CC(CCc3ccccc3)(C(C)C)OC2=O)c(C(C)(C)C)cc1N` (stereo not given), the IC50 came out at 3.6 nM in test [1] (pH 6.2, 37 °C) and 3.6 nM in test [2].
As to `Cc1cc(SC2C(=O)CC(CCc3ccccc3)(C(C)C)OC2=O)c(C(C)(C)C)cc1NS(=O)(=O)c1cccs1` (stereo not given), the IC50 in test [1] (pH 6.2, 37 °C) is 3.6 nM; in test [2], 3.6 nM.
Take `Cc1cc(SC2C(=O)CC(CCc3ccccc3)(C(C)C)OC2=O)c(C(C)(C)C)cc1NS(=O)(=O)c1cccnc1` (stereo not given): the IC50 in test [1] and in test [2] was 3.5 nM throughout.
Turning to `Cc1cc(SC2C(=O)CC(CCc3ccc(O)cc3)(C(C)C)OC2=O)c(C(C)(C)C)cc1OS(=O)(=O)c1ccc(F)cc1` (stereo not given), the IC50 in test [1] and in test [2] was 9.6 nM throughout.
For the molecule `Cc1cc(SC2C(=O)CC(CCc3ccc(O)cc3)(C(C)C)OC2=O)c(C(C)(C)C)cc1OS(=O)(=O)c1cccnc1` (stereo not given), the IC50 in test [1] and in test [2] was 3.5 nM throughout.
Consider `Cc1cc(SC2C(=O)CC(C)(CCc3ccc(O)cc3)OC2=O)c(C(C)(C)C)cc1OS(=O)(=O)c1ccccc1` (stereo not given), for which the IC50 in test [1] and in test [2] was 9.8 nM throughout.
Take `Cc1cc(SC2C(=O)CC(C)(CCc3ccc(O)cc3)OC2=O)c(C(C)(C)C)cc1OS(=O)(=O)c1ccc(F)cc1` (stereo not given): the IC50 in test [1] and in test [2] was 16.9 nM throughout.
Consider `Cc1cc(SC2C(=O)CC(CCc3ccc(O)cc3)(C3CCCCC3)OC2=O)c(C(C)(C)C)cc1OS(=O)(=O)c1ccc(C#N)cc1` (stereo not given), for which the IC50 in test [1] and in test [2] was 21 nM each time.
`Cc1cc(SC2C(=O)CC(CCc3ccc(O)cc3)(C3CCCCC3)OC2=O)c(C(C)(C)C)cc1OS(=O)(=O)c1ccc(F)cc1` (stereo not given): the IC50 in test [1] and in test [2] was 29 nM in each case.
In the case of `Cc1cc(SC2C(=O)CC(CCc3ccccc3)(C(C)C)OC2=O)c(C(C)(C)C)cc1OS(=O)(=O)c1cccnc1` (stereo not given), the IC50 in test [1] and in test [2] was 14 nM each time.
As to `Cc1cc(SC2C(=O)CC(CCc3ccc(N)cc3)(C(C)C)OC2=O)c(C(C)(C)C)cc1OS(=O)(=O)c1ccc(C#N)cc1` (stereo not given), the IC50 in test [1] and in test [2] was 1.3 nM in each case.
On to `CCNS(=O)(=O)Nc1cc(C(C)(C)C)c(SC2C(=O)CC(CCc3ccc(O)cc3)(C(C)C)OC2=O)cc1C` (stereo not given), for which the IC50 in test [1] and in test [2] was 1.7 nM each time.
Take `CCNS(=O)(=O)Nc1cc(C(C)(C)C)c(SC2C(=O)CC(CCc3ccccc3)(C(C)C)OC2=O)cc1C` (stereo not given): the IC50 in test [1] and in test [2] was 3.3 nM in each case.
For the molecule `Cc1cc(SC2C(=O)CC(CCc3ccc(O)cc3)(C(C)C)OC2=O)c(C(C)(C)C)cc1NS(=O)(=O)N(C)C` (stereo not given) [3-({2-tert-butyl-4-[(dimethylsulfamoyl)amino]-5-methylphenyl}sulfanyl)-4-hydroxy-6-[2-(4-hydroxyphenyl)ethyl]-6-(propan-2-yl)-5,6-dihydro-2H-pyran-2-one], the IC50 in test [1] and in test [2] was 3.6 nM in each case.
Turning to `Cc1cc(SC2C(=O)CC(C)(CCc3ccc(O)cc3)OC2=O)c(C(C)(C)C)cc1N` (stereo not given) [3-[(4-amino-2-tert-butyl-5-methylphenyl)sulfanyl]-4-hydroxy-6-[2-(4-hydroxyphenyl)ethyl]-6-methyl-5,6-dihydro-2H-pyran-2-one], the IC50 came to 13 nM in test [1] (pH 6.2, 37 °C) and 13 nM in test [2].
`Cc1cc(SC2C(=O)CC(CCc3ccc(O)cc3)(C(C)C)OC2=O)c(C(C)(C)C)cc1OS(=O)(=O)c1ccc(C#N)cc1` (stereo not given) [5-tert-butyl-4-({4-hydroxy-6-[2-(4-hydroxyphenyl)ethyl]-2-oxo-6-(propan-2-yl)-5,6-dihydro-2H-pyran-3-yl}sulfanyl)-2-methylphenyl 4-cyanobenzene-1-sulfonate]: the IC50 in test [1] and in test [2] was 4.5 nM throughout.
`Cc1cc(SC2C(=O)CC(CCc3ccc(O)cc3)(C(C)C)OC2=O)c(C(C)(C)C)cc1OS(=O)(=O)c1ccccc1` (stereo not given) [5-tert-butyl-4-({4-hydroxy-6-[2-(4-hydroxyphenyl)ethyl]-2-oxo-6-(propan-2-yl)-5,6-dihydro-2H-pyran-3-yl}sulfanyl)-2-methylphenyl benzenesulfonate]: the IC50 in test [1] and in test [2] was 10.4 nM in each case.
In the case of `Cc1cc(SC2C(=O)CC(CCc3ccc(O)cc3)(C(C)C)OC2=O)c(C(C)(C)C)cc1OS(=O)(=O)c1ccccn1` (stereo not given) [5-tert-butyl-4-({4-hydroxy-6-[2-(4-hydroxyphenyl)ethyl]-2-oxo-6-(propan-2-yl)-5,6-dihydro-2H-pyran-3-yl}sulfanyl)-2-methylphenyl pyridine-2-sulfonate], the IC50 in test [1] and in test [2] was 5 nM throughout.
In the case of `Cc1cc(SC2C(=O)CC(CCc3ccc(O)cc3)(C(C)C)OC2=O)c(C(C)(C)C)cc1OS(=O)(=O)c1cccs1` (stereo not given) [5-tert-butyl-4-({4-hydroxy-6-[2-(4-hydroxyphenyl)ethyl]-2-oxo-6-(propan-2-yl)-5,6-dihydro-2H-pyran-3-yl}sulfanyl)-2-methylphenyl thiophene-2-sulfonate], the IC50 in test [1] and in test [2] was 21.8 nM in each case.
Regarding `Cc1cc(SC2C(=O)CC(CCc3ccc(O)cc3)(C3CCCCC3)OC2=O)c(C(C)(C)C)cc1OS(=O)(=O)c1ccccc1` (stereo not given) [5-tert-butyl-4-({6-cyclohexyl-4-hydroxy-6-[2-(4-hydroxyphenyl)ethyl]-2-oxo-5,6-dihydro-2H-pyran-3-yl}sulfanyl)-2-methylphenyl benzenesulfonate], the IC50 in test [1] was 130 nM; in test [2] it was 131 nM.
The matching figures for `Cc1cc(SC2C(=O)CC(CCc3ccccc3)(C(C)C)OC2=O)c(C(C)(C)C)cc1OS(=O)(=O)c1ccccn1` (stereo not given) [5-tert-butyl-4-{[4-hydroxy-2-oxo-6-(2-phenylethyl)-6-(propan-2-yl)-5,6-dihydro-2H-pyran-3-yl]sulfanyl}-2-methylphenyl pyridine-2-sulfonate]: 6.7 nM and 6.7 nM.
On to `Cc1cc(SC2C(=O)CC(CCc3ccc(O)cc3)(C(C)C)OC2=O)c(C(C)(C)C)cc1OS(=O)(=O)N(C)C` (stereo not given) [6-Alkyl-5,6-Dihydropyran-2-one 22], for which 3.4 nM corresponded to half-maximal inhibition in test [2] (IC50).
For the molecule `Cc1cc(SC2C(=O)CC(CCc3ccccc3)(C(C)C)OC2=O)c(C(C)(C)C)cc1NS(=O)(=O)c1ccccn1` (stereo not given) [N-(5-tert-butyl-4-{[4-hydroxy-2-oxo-6-(2-phenylethyl)-6-(propan-2-yl)-5,6-dihydro-2H-pyran-3-yl]sulfanyl}-2-methylphenyl)pyridine-2-sulfonamide], the IC50 in test [1] and in test [2] was 3 nM throughout.
